“Also recorded” adds a separate entry of the source.
What was measured:
[1] = test system: p-CREB; test: Human phosphokinase array; format: cell-based; settings: 20 μM for 24 hours, compared to untreated
Method: Samples of primary CLL cells were treated in vitro with 20 μM isoproterenol for 24 hours in a human phosphokinase array. In the array each kinase was spotted in duplicate with hybridization signals at the corners serving as controls. Relative levels of protein phosphorylation (normalized intensity for each antibody) were calculated for each untreated and treated sample.

[2] = test system: primary CLL cells; test: Isoproterenol-induced intracellular cAMP accumulation; format: cell-based, human; settings: IBMX pre-treatment one hour, then 10 uM for 24 hr; CLL cells compared to normal cells
Method: Isoproterenol-induced intracellular cAMP accumulation in normal PBMCs and primary CLL cells was assessed. Cell samples were pre-treated for one hour with phosphodiesterase inhibitor (IBMX) and then with 10 uM isoproterenol for 24 hr.

[3] = test system: CLL primary cells; test: MTT (ATP independent) cell viability assay; format: cell-based, human; settings: gradient of concentrations
Excerpt: The two assays gave completely different dose-response curves.

[4] = test system: primary CLL cells; test: CellTiter-Glo ATP-based luminescent assay, intracellular ATP depletion; format: cell-based, human; settings: for intracellular ATP depletion (luminescence), dose-response: gradient of concentrations, 1 to 20 μM
Method: Primary CLL cells were treated with 3 uM isoproterenol (IC50 determined with Cell-titer Glo® assay) for 24 hr. Cell death markers for apoptosis (cleaved PARP, cleaved caspase 3 and caspase 9) and autophagy (accumulation of LC3 II) were assessed by western blotting. The […] phosphodiesterase inhibitor, IBMX, was used as a positive control because it induces apoptosis in CLL B cells.
CellTiter-Glo® Luminescent Cell Viability Assay is a homogeneous method for determining the number of viable cells in culture based on quantitation of the ATP present, an indicator of metabolically active cells.
ATP depletion in CLL cells was measured by the ATP-based luminescent assay CellTiter-Glo®.
Isoproterenol-induced intercellular ATP depletion was determined by the ATP-based luminescent assay CellTiter-Glo®. The efficiency of isoproterenol in depleting intracellular ATP is represented by the dose response curves shown by FIGS. 3B, 3D and 3F respectively.

[5] = test system: primary CLL cells; test: Western blotting / immunoblotting of apoptosis markers (cleaved PARP, caspases); format: cell-based, human; settings: for cleaved PARP (apoptosis marker), western blot: 3 uM isoproterenol, 24 hr, IBMX positive control; for apoptosis by immunoblotting with apoptotic markers: 30 uM isoproterenol 12 hrs pre-treatment, 10 uM fludarabine 48 hr
Method: Cell death markers for apoptosis (cleaved PARP, cleaved caspase 3 and caspase 9) and autophagy (accumulation of LC3 II) were assessed by western blotting.
[…] Cells were then harvested and examined by immunoblotting with apoptotic markers Cleaved PARP and caspace 9.
Control primary CLL cells ([…]), 10 uM fludarabine (Flud), a combination of both drugs at these concentrations (Flud/Iso), 0.5 uM doxorubicin (Dodo), a combination of 0.5 uM doxorubicin and 30 uM isoproterenol (Dodo/Iso), 0.5 uM mitoxantrone, and a combination of 0.5 uM mitoxantrone and 30 uM isoproterenol and incubated. Cells were than harvested and examined by immunoblotting with the indicated apoptotic markers.

[6] = test system: primary CLL cells; format: cell-based
Method: (§1) To assess viability of the treated cells, cells were stained by propidium iodide and analyzed by flow cytometry.
(§2) The PI/flow cytometry assay assesses cell viability using propidium iodide (PI) which is a membrane impermanent dye that is generally excluded from viable cells. It binds to double stranded DNA by intercalating between base pairs.
Primary CLL cells were isolated from three CLL patients and were exposed 10 uM fludarabine (a purine analog) alone or in combination with 30 uM isoproterenol to assess the effects of the drug(s) on cytotoxicity and growth. Induced cell death was assessed by PI staining and flow cytometry.
After 24 hours treatment, the treated cells were stained with the cell-death marker, propidium iodide and analyzed with flow-cytometry to determine % induced cell death.

[7] = test system: normal PBMCs; test: Induced cell death by propidium iodide staining and flow cytometry; format: cell-based, human; settings: 3 uM
Method: as §1, §2
Cells from CLL, AML, and from normal donors were treated with 30 μM isoproterenol, 10 μM fludarabine, or a mixture of both drugs at these concentrations as shown by FIGS. 3A, 3C and 3E respectively.

[8] = test system: P53

phosphorylation of p-CREB [1] | SMILES | intracellular cAMP accumulation [2] | cell death by MTT assay [3] | intracellular ATP depletion ([4]; 1 μM) | depletion of intracellular ATP ([4]; 30 μM for 12 hours) | sensitivity to isoproterenol induced intracellular ATP depletion ([4]; CLL primary cells compared with other leukemia subtypes and normal PBMCs) | IC50 ([4]; Homo sapiens, CLL cell, primary CLL cells, read-out: IC50 determined with Cell-titer Glo assay) [nM] | intracellular ATP depletion (luminescence), dose-response [4] | intracellular ATP depletion (luminescence), dose-response ([4]; listed as Iso) | sensitivity to isoproterenol (ATP depletion) ([4]; primary CLL cells from a CLL patient at early stage) | cleaved PARP (apoptosis marker), western blot [5] | apoptosis by immunoblotting with apoptotic markers [5] | cell death, PI staining / flow cytometry ([6]; 3 uM) | cell death, ATP-independent assay (solid line FIG. 1C) ([6]; 1 to 20 μM) | cell death, PI staining / flow cytometry [7] | p53 expression [8] | apoptosis, cleaved PARP (relative pixel density) ([5]; 30 uM isoproterenol, 10 uM fludarabine)
only significantly up-regulated kinase | CC(C)NCC(O)c1ccc(O)c(O)c1 (stereo not shown) [isoproterenol, Isoproterenol] | significantly higher accumulation of cAMP | doesn't induce cell death | weak intracellular ATP depletion | more than 80% | highest sensitivity | 3000 | increased intracellular ATP depletion; also recorded: dose-dependent decrease in luminescence | induces intracellular ATP depletion | lesser sensitivity | no cleaved PARP | Apoptosis was not observed | did not induce any significant cell death | did not induce cell death | did not induce any significant cell death | doesn't induce any increase in p53 expression | 
 | CC(C)Cn1c(=O)n(C)c(=O)c2[nH]cnc21 [IBMX] |  |  |  |  |  |  |  |  |  | presence of cleaved PARP |  |  |  |  |  | 
 | Nc1nc(F)nc2c1ncn2[C@@H]1O[C@H](CO)[C@@H](O)[C@@H]1O [fludarabine, Fludarabine] |  |  |  |  |  |  |  |  |  |  | Apoptosis was observed |  |  |  |  | induced apoptosis

Source: patent publication US11052101B2, “Methods for treating cancer using purine analogs by depleting intracellular ATP” (National Guard Health Affairs, priority 2019, dated 2021)
